Measured values taken from paper PMC10146558, “Highly Cytotoxic Copper(II) Mixed-Ligand Quinolinonato Complexes: Pharmacokinetic Properties and Interactions with Drug Metabolizing Cytochromes P450” (Pharmaceutics, 2023).
“And” between values parts separate entries of the source, which are not always exact repeats. Equal entries are not always repeated. Where two headings read alike, the source gives them in different places.

Experiments:
CYP3A4/5 = CYP3A4/5 activity (testosterone 6β-hydroxylation) in human liver microsomes; conditions: for Type of inhibition, CYP3A4/5 (testosterone 6β-hydroxylation) / Ki: Dixon and Lineweaver–Burk plots; for IC50: read-out: IC50 CYP3A4/5 (testosterone 6β-hydroxylation assay), human liver microsomes; for Ki: read-out: Ki CYP3A4/5 (testosterone 6β-hydroxylation assay), substrate ½ Km to 4 Km
Description: For each enzyme assay, the preliminary experiments to determine Michaelis constant (Km) and limiting velocity (Vmax) were performed to calculate the time of incubation (the specified time for which the reaction is still linear) and the values of substrate concentration (in the range corresponding to the value of Km). The amount of human liver microsomes (HLM; expressed as the amount of CYP in pmol and the concentration of HLM protein in mg/mL in the reaction vessel) in the reaction was determined using previously established protocols [40].
The reaction mixtures were buffered by 0.1 M potassium phosphate buffer (pH 7.4) and contained a NADPH-generating system consisting of the isocitrate dehydrogenase (6 U/mL), NADP^+ (0.5 mM), isocitric acid (4 mM), and MgSO4 (5 mM). The final concentration levels of complexes were obtained by diluting a 10 mM solution with dimethyl sulfoxide (DMSO). It is known that DMSO can in some cases inhibit P450; the following measures were thus applied: (a) control samples containing organic solvent without the tested compounds were prepared and used as references; (b) DMSO levels were maintained below 0.1% to minimise the inhibition. Inhibition experiments were performed using five concentration levels of the tested compounds in the range of 10–100 µM. The maximum concentration was chosen so that in the case of inhibition, it would be possible to determine the inhibitory effect of the complexes and characterise them by determining the IC50 value. Additionally, an inhibitor-free control was used as a reference. Incubations were executed in two independent batches, and the samples were prepared and measured in triplicate at 37 °C.
The type of model was selected on the basis of the Lineweaver–Burk and Dixon plots. The values of IC50 were obtained by analysing the plot of the percentage of activity remaining after inhibition versus the logarithm of the inhibitor concentration using the GraphPad Prism 6 software (La Jolla, CA, USA).

[1] = tested on: human liver microsomal cytochrome P450s; assay: Difference spectra (UV-visible spectral titration) with human liver microsomes; conditions: read-out: Ks (spectral binding constant); spectral differences at 386 nm, CYP 1 µM, pH 7.4, room temperature
Description: (§2) The cuvette contained microsomes diluted to final concentration of CYP 1 µM in 50 mM potassium phosphate buffer (pH 7.4). The tested compounds were dissolved in the same buffer, and their concentrations in the experiments ranged from 0.002 to 33.310 µM. The UV-Visible spectra were recorded at room temperature by repetitive scanning between 300 and 700 nm using Varian 500 UV/VIS spectrophotometer (Agilent Technologies, Wakefield, MA, USA). Changes of absorbance in the range of the Soret’s region (380–450 nm) were plotted against the concentration of the studied compounds. Data were analysed using GraphPad Prism 6 software (La Jolla, CA, USA).

human bactosomes CYP3A4 = molecular target: T1, human bactosomes CYP3A4 (Homo sapiens, UniProt P08684); assay: Isothermal titration calorimetry, bactosomes CYP3A4; format: binding; conditions: 25 °C; for n, CYP3A4B: ITC stoichiometry, pH 7.4; for Ka, CYP3A4B / ΔG, CYP3A4B / ΔH, CYP3A4B / ΔS, CYP3A4B / Kd: ITC, pH 7.4, 1% DMSO; for Kd: read-out: Kd, CYP3A4B
T1 construct: purchased Cypex (Dundee, UK); host or cells: bacterial membranes ('bactosomes')
T1 sequence (P08684 whole entry): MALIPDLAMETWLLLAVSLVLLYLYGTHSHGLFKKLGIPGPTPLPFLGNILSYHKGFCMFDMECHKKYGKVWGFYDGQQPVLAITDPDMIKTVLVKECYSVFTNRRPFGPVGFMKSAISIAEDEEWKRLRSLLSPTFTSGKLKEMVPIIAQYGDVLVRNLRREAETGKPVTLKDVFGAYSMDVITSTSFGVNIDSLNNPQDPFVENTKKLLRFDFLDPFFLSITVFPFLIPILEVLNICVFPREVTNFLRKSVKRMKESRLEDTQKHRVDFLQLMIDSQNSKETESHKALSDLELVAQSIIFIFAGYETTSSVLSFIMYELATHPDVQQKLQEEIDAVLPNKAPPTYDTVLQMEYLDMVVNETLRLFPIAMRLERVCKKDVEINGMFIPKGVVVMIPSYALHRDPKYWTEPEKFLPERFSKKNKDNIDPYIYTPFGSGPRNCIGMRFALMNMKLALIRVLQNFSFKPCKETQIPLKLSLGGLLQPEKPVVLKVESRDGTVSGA
Description: The interactions of the compounds with selected forms of cytochrome P450, i.e., human bactosomes CYP1A2, CYP2A6, CYP3A4, and recombinant human CYP3A4, were studied using isothermal titration calorimetry (ITC). ITC experiments were performed at 25 °C with a Nano ITC Low Volume (TA Instruments, New Castle, DE, USA). During all measurements, 20 injections of 16µM of the studied compound (2.5 µL each) were titrated into 250 µL of protein (2 µM) with time intervals of 300 s and a stirring speed of 250 rpm. All ITC experiments were conducted with degassed buffered solutions (100 mM phosphate buffer, pH 7.4) in the presence of 1% DMSO. Control experiments included the titration of each complex solution into a buffer. The corrected data refer to experimental data after subtraction of the buffer control data from the compounds data. The resulting thermograms were analysed using the “Independent” model within the NanoAnalyze software (TA Instruments, New Castle, DE, USA).

CYP2C19 = molecular target: T2, CYP2C19 (Homo sapiens, UniProt P33261); assay: CYP2C19 activity ((S)-mephenytoin 4′-hydroxylation) in human liver microsomes; format: biochemical; conditions: for Type of inhibition, CYP2C19 / Ki: Dixon and Lineweaver–Burk plots; for Ki: substrate ½ Km to 4 Km; for IC50: human liver microsomes, (S)-mephenytoin 4′-hydroxylation
T2 construct: Cryopreserved pooled human liver microsomes were obtained from Xenotech; tissue Xenotech (Lenexa, KS, USA); host or cells: pooled human liver microsomes
T2 sequence (P33261 whole entry): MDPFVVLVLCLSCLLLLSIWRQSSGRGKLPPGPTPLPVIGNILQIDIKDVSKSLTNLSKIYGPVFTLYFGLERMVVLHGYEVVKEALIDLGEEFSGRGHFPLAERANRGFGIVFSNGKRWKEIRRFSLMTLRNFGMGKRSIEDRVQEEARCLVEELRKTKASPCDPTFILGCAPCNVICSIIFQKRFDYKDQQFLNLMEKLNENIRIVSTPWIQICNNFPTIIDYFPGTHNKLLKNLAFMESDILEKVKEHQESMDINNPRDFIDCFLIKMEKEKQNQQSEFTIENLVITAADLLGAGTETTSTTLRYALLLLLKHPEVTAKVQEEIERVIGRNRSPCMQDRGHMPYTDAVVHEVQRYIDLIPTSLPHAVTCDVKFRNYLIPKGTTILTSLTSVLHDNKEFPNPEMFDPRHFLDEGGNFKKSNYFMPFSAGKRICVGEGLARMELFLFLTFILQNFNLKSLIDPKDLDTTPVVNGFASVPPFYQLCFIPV
Description: (§3) For each enzyme assay, the preliminary experiments to determine Michaelis constant (Km) and limiting velocity (Vmax) were performed to calculate the time of incubation (the specified time for which the reaction is still linear) and the values of substrate concentration (in the range corresponding to the value of Km).
(§4) The reaction mixtures were buffered by 0.1 M potassium phosphate buffer (pH 7.4) and contained a NADPH-generating system consisting of the isocitrate dehydrogenase (6 U/mL), NADP^+ (0.5 mM), isocitric acid (4 mM), and MgSO4 (5 mM). The final concentration levels of complexes were obtained by diluting a 10 mM solution with dimethyl sulfoxide (DMSO). It is known that DMSO can in some cases inhibit P450; the following measures were thus applied: (a) control samples containing organic solvent without the tested compounds were prepared and used as references; (b) DMSO levels were maintained below 0.1% to minimise the inhibition. Inhibition experiments were performed using five concentration levels of the tested compounds in the range of 10–100 µM. The maximum concentration was chosen so that in the case of inhibition, it would be possible to determine the inhibitory effect of the complexes and characterise them by determining the IC50 value. Additionally, an inhibitor-free control was used as a reference. Incubations were executed in two independent batches, and the samples were prepared and measured in triplicate at 37 °C. Analyses of the metabolites formed from the specific substrates were performed by HPLC using the Prominence system (Shimadzu, Kyoto, Japan) equipped with a LiChroCART 250-4 LiChrospher 100 RP-18 column, Chromolith® HighResolution RP-18 end-capped column (Merck, Darmstadt, Germany), or Kinetex Biphenyl column (Phenomenex, Torrace, CA, USA).
(§5) The apparent Ki values were determined by additional measurements using substrate concentrations corresponding to 1/2 Km, Km, 2 Km, and 4 Km in the case of inhibition. The type of model was selected on the basis of the Lineweaver–Burk and Dixon plots. The values of IC50 were obtained by analysing the plot of the percentage of activity remaining after inhibition versus the logarithm of the inhibitor concentration using the GraphPad Prism 6 software (La Jolla, CA, USA).

[2] = Parallel artificial membrane permeability assay (PAMPA); format: in vitro ADME; conditions: category according to log Papp
Description: Pharmacological properties of the complexes 1 and 2, including stability in plasma, microsomal stability, binding to plasma proteins, and permeability through an artificial membrane, were tested under in vitro conditions and according to methods described in previous reports. Analysis of the samples was performed using Agilent RapidFire 300 High-Throughput Mass Spectrometry System (Agilent Technologies, Wakefield, MA, USA) with subsequent detection using the mass spectrometer Qtrap 5500 (AB Sciex, Concord, Toronto, ON, Canada), abbreviation RF-MS. […]
PAMPA was performed with the Millipore MultiScreen filter MultiScreen-IP Durapore 0.45-μm plates and receiver plates (Merck Millipore, Burlington, MA, USA). […] The permeation of compounds across a filter membrane (activation by 10% lecithin in dodecane) was quantified by RF/MS after 18 h incubation at room temperature. The apparent permeability, logPe, was calculated from the following equation: logPe = log{C× − ln(1 − drugA/drugE)}; C = (VA × VD)/{(VD + VA) × A × T}, where VD and VA are the volumes of the donor and acceptor compartments, respectively; A is the active surface area of the membrane; T is the time of the incubation in seconds; and drugA or drugE represents the concentration of the tested compounds in the acceptor compartment and in the solution in theoretical equilibrium.

CYP2C9 = molecular target: T3, CYP2C9 (Homo sapiens, UniProt P11712); assay: CYP2C9 activity (diclofenac 4′-hydroxylation) in human liver microsomes; format: biochemical; conditions: for Type of inhibition, CYP2C9 / Ki: Dixon and Lineweaver–Burk plots; for Ki: substrate ½ Km to 4 Km; for IC50: human liver microsomes, diclofenac 4′-hydroxylation
T3 construct: Cryopreserved pooled human liver microsomes were obtained from Xenotech; tissue Xenotech (Lenexa, KS, USA); host or cells: pooled human liver microsomes
T3 sequence (P11712 whole entry): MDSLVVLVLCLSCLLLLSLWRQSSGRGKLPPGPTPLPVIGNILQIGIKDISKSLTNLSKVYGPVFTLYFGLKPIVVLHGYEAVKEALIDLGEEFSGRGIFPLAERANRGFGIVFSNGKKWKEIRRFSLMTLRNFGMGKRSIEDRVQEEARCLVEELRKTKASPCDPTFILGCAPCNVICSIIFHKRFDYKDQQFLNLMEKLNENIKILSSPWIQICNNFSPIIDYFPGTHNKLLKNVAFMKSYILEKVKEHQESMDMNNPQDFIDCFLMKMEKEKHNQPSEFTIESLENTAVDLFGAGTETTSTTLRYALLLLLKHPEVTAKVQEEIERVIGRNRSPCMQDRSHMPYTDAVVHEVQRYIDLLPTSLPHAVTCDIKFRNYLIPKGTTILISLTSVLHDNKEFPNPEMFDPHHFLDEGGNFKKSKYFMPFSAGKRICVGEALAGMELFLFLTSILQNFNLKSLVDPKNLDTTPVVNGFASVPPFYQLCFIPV
Description: as §3, §4, §5

[3] = Stability in human plasma; format: in vitro ADME; conditions: 37 °C, 3.3 μM
Description: (§1) Pharmacological properties of the complexes 1 and 2, including stability in plasma, microsomal stability, binding to plasma proteins, and permeability through an artificial membrane, were tested under in vitro conditions and according to methods described in previous reports. Analysis of the samples was performed using Agilent RapidFire 300 High-Throughput Mass Spectrometry System (Agilent Technologies, Wakefield, MA, USA) with subsequent detection using the mass spectrometer Qtrap 5500 (AB Sciex, Concord, Toronto, ON, Canada), abbreviation RF-MS. The samples were aspirated directly from the plates into a 10 μL sample loop and passed through a C4 cartridge with solvent A (5% acetonitrile, 95% water, 0.1% formic acid) at a flow rate of 1.5 mL/min for 3 s. After the desalting step, analytes retained on the cartridge were eluted with solvent B (95% acetonitrile, 5% water, 0.1% formic acid) in the mass spectrometer at a flow rate of 0.4 mL/min for 5 s. The mass spectrometry of the samples was carried out using electrospray ionisation in the positive ion mode. Daughter ion peaks were identified using a multiple-reaction monitoring protocol.
The reaction was terminated by ice-cold methanol (chemical stability) or acetonitrile:methanol (2:1), and samples were left at −80 °C overnight (plasma stability). The solution was mixed and centrifuged (4000 rpm, 9 min, 4 °C). After lyophilization of supernatant, samples were dissolved in mobile phase with internal standard and analysed by RF/MS analysis.

[4] = Microsomal stability assay; format: in vitro ADME; conditions: human liver microsomes, NADPH-generating system, 5.74 μM
Description: as §1
According to the protocol, reaction mixtures included tested compound (5.74 μM), human liver microsomes, NADPH-generating system consisting of NADP^+, isocitrate dehydrogenase, isocitric acid, and MgSO4 in 100 mM K/PO4 buffer. Assay was performed at 0, 15, 30, and 60 min. Reactions were terminated using acetonitrile–methanol (2:1) mixture. After centrifugation, the supernatant was lyophilized and analysed by RF-MS. The values of intrinsic clearance were calculated using the formula: CLint = 0.693/t1/2/mg microsome protein per mL of reaction.

[5] = tested on: human liver microsomal cytochrome P450s; conditions: pH 7.4
Description: as §2

Structure (SMILES)	Type of inhibition, CYP3A4/5 (testosterone 6β-hydroxylation) (CYP3A4/5)	IC50 (CYP3A4/5) [µM]	Ki (CYP3A4/5) [µM]	n, CYP3A4B (human bactosomes CYP3A4)	Ka, CYP3A4B (human bactosomes CYP3A4) [M⁻¹]	ΔG, CYP3A4B (human bactosomes CYP3A4)	ΔH, CYP3A4B (human bactosomes CYP3A4) [kcal/mol]	ΔS, CYP3A4B (human bactosomes CYP3A4) [J/mol.K]	Kd (human bactosomes CYP3A4) [µM]	Type of inhibition, CYP2C19 (CYP2C19)	Ki (CYP2C19) [µM]	IC50 (CYP2C19) [µM]	PAMPA Category [2]	Type of inhibition, CYP2C9 (CYP2C9)	Ki (CYP2C9) [µM]	IC50 (CYP2C9) [µM]	% Compound Remaining, Plasma Stability, 15 min [3] [%]	% Compound Remaining, Plasma Stability, 30 min [3] [%]	% Compound Remaining, Plasma Stability, 60 min [3] [%]	% Compound Remaining, Plasma Stability, 120 min [3] [%]	other results
Cc1cc2cccnc2c2ncccc12.F[B-](F)(F)F.O.O=c1c([O-])c(-c2ccccc2)[nH]c2ccccc12.[Cu+2] [complex 2]	fully non-competitive	4.88	3.94 ± 0.6	0.859	2.17e+07	−41,881.2 J/mol	-14.99	−69.86	0.0461	fully non-competitive	9.14 ± 0.8	77.1	Low (those with log Papp < −5 were considered poorly permeable)	fully non-competitive	0.92 ± 0.25	37.2	98.3 ± 2.4	94.1 ± 2.4	96.6 ± 3.4	92.6 ± 2.2	CYP3A4/5 activity remaining (testosterone 6β-hydroxylation), % of basal activity (CYP3A4/5; at 100 μM): 1%; Kd [1]: 8.56 ± 1 µM; CYP2C19 activity remaining, % of the basal activity (CYP2C19; at 100 μM): 36%; CYP2C9 activity remaining, % of the control (CYP2C9; at 100 μM): 7%; % Compound remaining, Microsomal stability, 15 min [4]: 76.5 ± 2.7%; % Compound remaining, Microsomal stability, 30 min [4]: 76.2 ± 2.7%; % Compound remaining, Microsomal stability, 60 min [4]: 70% and 69.7 ± 2.4%
Cc1cc2cccnc2c2ncccc12.O.O=[N+]([O-])[O-].O=c1c([O-])c(-c2ccccc2)[nH]c2ccccc12.[Cu+2] [complex 1]	non-competitive	2.46	3.6 ± 0.67	0.911	1.92e+07	−41,558.7 J/mol	-19.13	−129	0.0521	non-competitive	4.15 ± 0.71	61.2	Low (those with log Papp < −5 were considered poorly permeable)	non-competitive	2.56 ± 0.37	16.3	98.9 ± 2.5	94.0 ± 3.3	94.2 ± 2.3	91.2 ± 1.2	Kd [5]: 7.59 ± 1.8 µM; % Compound remaining, Microsomal stability, 15 min [4]: 99.4 ± 3.5%; % Compound remaining, Microsomal stability, 30 min [4]: 80.7 ± 2.8%; % Compound remaining, Microsomal stability, 60 min [4]: 78% and 78.1 ± 1.7%
